Counter-ions that a name gives are not always drawn.
biological target: T1, ENaC (Mus musculus, UniProt Q61180+Q9WU38+Q9WU39); assay: Ussing chamber: short circuit current (I_sc) in mouse kidney M-1 cells, amiloride-sensitive; type: cell-based; details: compound applied to apical solution, 37° C.
T1 construct: Mouse kidney M-1 cells were cultivated in DMEM containing 5% FCS and 5 μM dexamethasone; endogenous in cells; host or cells: mouse kidney M-1 cells
T1 sequence (Q61180 1-699): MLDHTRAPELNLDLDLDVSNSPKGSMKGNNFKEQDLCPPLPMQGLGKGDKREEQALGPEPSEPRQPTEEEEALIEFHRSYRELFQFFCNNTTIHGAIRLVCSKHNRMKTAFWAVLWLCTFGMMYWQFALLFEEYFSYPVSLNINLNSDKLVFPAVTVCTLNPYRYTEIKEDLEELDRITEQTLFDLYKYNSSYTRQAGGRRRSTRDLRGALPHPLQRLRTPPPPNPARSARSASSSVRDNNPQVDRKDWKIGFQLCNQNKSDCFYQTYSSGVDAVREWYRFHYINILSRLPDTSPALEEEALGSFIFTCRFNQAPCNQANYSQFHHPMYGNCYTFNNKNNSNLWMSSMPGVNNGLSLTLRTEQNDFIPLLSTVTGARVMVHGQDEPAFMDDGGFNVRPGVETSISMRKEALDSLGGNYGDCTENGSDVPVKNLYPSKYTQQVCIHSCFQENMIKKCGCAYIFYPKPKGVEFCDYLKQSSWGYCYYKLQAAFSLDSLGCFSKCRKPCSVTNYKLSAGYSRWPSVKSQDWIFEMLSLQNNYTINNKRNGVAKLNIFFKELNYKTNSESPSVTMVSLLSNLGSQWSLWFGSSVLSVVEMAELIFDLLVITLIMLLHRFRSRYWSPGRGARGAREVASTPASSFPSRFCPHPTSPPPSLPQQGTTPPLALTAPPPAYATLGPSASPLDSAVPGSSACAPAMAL
T1 sequence (Q9WU38 1-638): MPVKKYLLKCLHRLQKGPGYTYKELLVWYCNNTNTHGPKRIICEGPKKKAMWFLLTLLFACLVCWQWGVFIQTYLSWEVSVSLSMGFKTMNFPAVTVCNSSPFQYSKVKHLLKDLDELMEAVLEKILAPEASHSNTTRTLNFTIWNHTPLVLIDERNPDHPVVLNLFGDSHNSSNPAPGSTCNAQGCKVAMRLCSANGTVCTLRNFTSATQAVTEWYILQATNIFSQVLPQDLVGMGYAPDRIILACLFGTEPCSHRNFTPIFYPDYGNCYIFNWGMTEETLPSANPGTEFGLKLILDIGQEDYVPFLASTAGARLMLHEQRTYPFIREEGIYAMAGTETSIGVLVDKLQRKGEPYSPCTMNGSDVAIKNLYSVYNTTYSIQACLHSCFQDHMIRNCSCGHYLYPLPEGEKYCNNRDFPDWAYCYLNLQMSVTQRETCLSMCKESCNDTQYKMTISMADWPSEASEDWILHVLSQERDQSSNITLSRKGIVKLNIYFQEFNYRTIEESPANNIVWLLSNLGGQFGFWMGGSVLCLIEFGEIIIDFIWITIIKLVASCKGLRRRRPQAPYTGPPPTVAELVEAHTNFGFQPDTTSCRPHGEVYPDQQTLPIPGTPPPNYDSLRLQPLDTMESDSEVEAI
T1 sequence (Q9WU39 1-655): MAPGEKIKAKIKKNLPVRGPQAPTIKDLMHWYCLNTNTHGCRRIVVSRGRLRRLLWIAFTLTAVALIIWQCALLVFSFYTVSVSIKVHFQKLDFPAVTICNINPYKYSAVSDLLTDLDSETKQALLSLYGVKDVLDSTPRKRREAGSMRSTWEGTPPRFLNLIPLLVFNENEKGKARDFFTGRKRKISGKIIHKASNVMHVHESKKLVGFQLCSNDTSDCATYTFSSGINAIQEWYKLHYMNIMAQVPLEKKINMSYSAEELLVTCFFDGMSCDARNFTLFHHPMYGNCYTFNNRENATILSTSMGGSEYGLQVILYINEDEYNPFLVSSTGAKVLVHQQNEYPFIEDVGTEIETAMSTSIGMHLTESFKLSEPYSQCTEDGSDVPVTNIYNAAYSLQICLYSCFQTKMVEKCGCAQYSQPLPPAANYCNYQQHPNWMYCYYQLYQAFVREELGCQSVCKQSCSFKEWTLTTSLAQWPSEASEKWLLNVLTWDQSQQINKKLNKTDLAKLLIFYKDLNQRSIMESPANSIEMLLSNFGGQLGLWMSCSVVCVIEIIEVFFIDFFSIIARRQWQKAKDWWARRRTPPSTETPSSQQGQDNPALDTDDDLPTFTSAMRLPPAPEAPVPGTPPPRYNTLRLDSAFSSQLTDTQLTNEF
Method: Ussing Chamber: Mouse kidney M-1 cells were cultivated in DMEM containing 5% FCS and 5 μM dexamethasone for 10 to 12 days on polyester transwell filters. Filters were inserted into a teflon-coated well-plate which fit into the in-house ussing chamber system. Prior to measurement the medium of M-1 cells was replaced with Caco-2 transport buffer (Invitrogen, Germany). During measurements, the Ussing chamber temperature was kept at 37° C. Short circuit currents (I_sc) were measured in the voltage-clamp mode using an in-house built amplifier (Boehringer Ingelheim, Biberach) with the software package Lab View for data acquisition and analysis. The transepithelial electrical resistance (TEER) was determined by the application of voltage steps of ±5 mV every 5 sec. Compounds were administered at a final concentration of 3 μM or at increasing concentrations (1-3-10 μM) to the apical solution. At the end of each experiment the amiloride sensitive I_SC was measured by adding 3 μM amiloride to the apical compartment. Results are expressed as inhibition in percent of the amiloride effect or as IC50.

Structure (SMILES)	IC50
CSc1ccc(C[N+]23CCC(CC2)[C@H](NC(N)=NC(=O)c2nc(Cl)c(N)nc2N)C3)cc1 [Example 52]	67 nM
NC(=NC(=O)c1nc(Cl)c(N)nc1N)N[C@@H]1C[N+]2(CC3CCCCC3)CCC1CC2 [Example 53]	70 nM
NC(=NC(=O)c1nc(Cl)c(N)nc1N)N[C@@H]1C[N+]2(Cc3ccc(F)c(F)c3)CCC1CC2 [Example 38]	23 nM
NC(=NC(=O)c1nc(Cl)c(N)nc1N)N[C@@H]1C[N+]2(CC(=O)c3ccccc3)CCC1CC2 [Example 41]	63 nM
COC(=O)c1cccc(C[N+]2(C)CCC[C@H](N/C(N)=N/C(=O)c3nc(Cl)c(N)nc3N)C2)c1 (stereo in doubt) [Example 72, (S)-3-[N′-(3,5-Diamino-6-chloro-pyrazine-2-carbonyl)-guanidino]-1-(3-methoxycarbonyl-benzyl)-1-methyl-piperidinium chloride]	122 nM
CC[N+]1(Cc2ccccc2)CCC(NC(N)=NC(=O)c2nc(Cl)c(N)nc2N)CC1 (centres unmarked) [Example 70.2]	52 nM
N/C(=N\C(=O)c1nc(Cl)c(N)nc1N)N[C@@H]1C[N+]2(Cc3ccccc3)CCC1CC2 [Example 6, (S)-1-Benzyl-3-[N′-(3,5-diamino-6-chloro-pyrazine-2-carbonyl)-guanidino]-1-azoniabicyclo[2.2.2]octane bromide]	28 nM
N=C(NC(=O)c1nc(Cl)c(N)nc1N)N[C@@H]1C[N+]2(CC(=O)N3CCC(C(=O)O)CC3)CCC1CC2 [Example 73.2, (S)-1-[2-(4-Carboxy-piperidin-1-yl)-2-oxo-ethyl]-3-[N′-(3,5-diamino-6-chloro-pyrazine-2-carbonyl)-guanidino]-1-azonia-bicyclo[2.2.2]octane chloride hydrochloride]	269 nM
N=C(NC(=O)c1nc(Cl)c(N)nc1N)N[C@@H]1C[N+]2(CC(=O)N[C@H](Cc3ccccc3)C(=O)O)CCC1CC2 [Example 73.1, (S)-1-[((R)-1-Carboxy-2-phenyl-ethylcarbamoyl)-methyl]-3-[N′-(3,5-diamino-6-chloro-pyrazine-2-carbonyl)-guanidino]-1-azonia-bicyclo[2.2.2]octane; chloride hydrochloride]	197 nM
N/C(=N\C(=O)c1nc(Cl)c(N)nc1N)NC1C[N+]2(CC(=O)O)CCC1CC2 (centres unmarked) [Example 1, 1-Carboxymethyl-3-[N′-(3,5-diamino-6-chloro-pyrazine-2-carbonyl)-guanidino]-1-azoniabicyclo[2.2.2]octane bromide]	468 nM
COc1cccc(C[N+]23CCC(CC2)[C@H](NC(N)=NC(=O)c2nc(Cl)c(N)nc2N)C3)c1OC [Example 37]	34 nM
CCN(CC)C(=O)C[N+]12CCC(CC1)[C@H](NC(N)=NC(=O)c1nc(Cl)c(N)nc1N)C2 [Example 30]	35 nM
NC(=NC(=O)c1nc(Cl)c(N)nc1N)N[C@@H]1C[N+]2(Cc3cscn3)CCC1CC2 [Example 35]	150 nM
NC(=NC(=O)c1nc(Cl)c(N)nc1N)N[C@@H]1C[N+]2(Cc3cccnc3)CCC1CC2 [Example 50]	104 nM
C[N+]1(Cc2ccccc2)CCC(N/C(N)=N/C(=O)c2nc(Cl)c(N)nc2N)CC1 (centres unmarked) [Example 70, 1-Benzyl-4-[N′-(3,5-diamino-6-chloro-pyrazine-2-carbonyl)-guanidino]-1-methyl-piperidinium chloride]	106 nM
NC(=NC(=O)c1nc(Cl)c(N)nc1N)N[C@@H]1C[N+]2(Cc3ccc(F)c(Cl)c3)CCC1CC2 [Example 26]	13 nM

Structure (SMILES)	IC50
C[N+]1(CC(=O)NCc2ccc(Cl)cc2)CCC[C@H](N/C(N)=N/C(=O)c2nc(Cl)c(N)nc2N)C1 (mixture of isomers) [Example 71.1]	30.6 nM
NC(=NC(=O)c1nc(Cl)c(N)nc1N)N[C@@H]1C[N+]2(Cc3ccc(OC(F)(F)F)cc3)CCC1CC2 [Example 51]	89 nM
N=C(NC(=O)c1nc(Cl)c(N)nc1N)N[C@@H]1C[N+]2(CC(=O)N[C@@H](Cc3ccccc3)C(=O)O)CCC1CC2 [Example 73, (S)-1-[((S)-1-Carboxy-2-phenyl-ethylcarbamoyl)-methyl]-3-[N′-(3,5-diamino-6-chloro-pyrazine-2-carbonyl)-guanidino]-1-azonia-bicyclo[2.2.2]octane chloride hydrochloride]	4 nM
NC(=NC(=O)c1nc(Cl)c(N)nc1N)N[C@@H]1C[N+]2(Cc3ccc(OCc4ccccc4)cc3)CCC1CC2 [Example 19]	32 nM
NC(=NC(=O)c1nc(Cl)c(N)nc1N)N[C@@H]1C[N+]2(Cc3cccc(SC(F)(F)F)c3)CCC1CC2 [Example 9]	3 nM
NC(=NC(=O)c1nc(Cl)c(N)nc1N)N[C@@H]1C[N+]2(Cc3nc4ccccc4s3)CCC1CC2 [Example 20]	29 nM
NC(=NC(=O)c1nc(Cl)c(N)nc1N)NC1C[N+]2(CC(=O)NC3CCC(c4ccccc4)CC3)CCC1CC2 (centres unmarked) [Example 75]	22 nM
CSc1cccc(C[N+]23CCC(CC2)[C@H](NC(N)=NC(=O)c2nc(Cl)c(N)nc2N)C3)c1 [Example 56]	12 nM
CCNC(=O)C[N+]12CCC(CC1)[C@H](NC(N)=NC(=O)c1nc(Cl)c(N)nc1N)C2 [Example 24]	56 nM
COC(=O)c1ccc(CCNC(=O)C[N+]23CCC(CC2)[C@H](NC(N)=NC(=O)c2nc(Cl)c(N)nc2N)C3)cc1 [Example 61]	2 nM
N/C(=N\C(=O)c1nc(Br)c(N)nc1N)N[C@@H]1C[N+]2(Cc3ccccc3)CCC1CC2 [Example 6.1, (S)-1-Benzyl-3-[N′-(3,5-diamino-6-bromo-pyrazine-2-carbonyl)-guanidino]-1-azoniabicyclo[2.2.2]octane bromide]	29 nM
N/C(=N\C(=O)c1nc(Cl)c(N)nc1N)N[C@H]1C[N+]2(Cc3ccccc3)CCC1CC2 [Example 5, (R)-1-Benzyl-3-[N′-(3,5-diamino-6-chloro-pyrazine-2-carbonyl)-guanidino]-1-azoniabicyclo[2.2.2]octane bromide]	460 nM
N#Cc1cccc(C[N+]23CCC(CC2)[C@H](NC(N)=NC(=O)c2nc(Cl)c(N)nc2N)C3)c1 [Example 33]	38 nM
NC(=NC(=O)c1nc(Cl)c(N)nc1N)N[C@@H]1C[N+]2(Cc3nnsc3Cl)CCC1CC2 [Example 47]	226 nM
NC(=NC(=O)c1nc(Cl)c(N)nc1N)N[C@@H]1C[N+]2(CC(=O)NCc3ccccc3)CCC1CC2 [Example 34]	7 nM
CCOC(=O)c1cccc(CCNC(=O)C[N+]23CCC(CC2)[C@H](NC(N)=NC(=O)c2nc(Cl)c(N)nc2N)C3)c1 [Example 77]	43 nM

Reference: US8841309B2, “Substituted pyrazines and their use in the treatment of disease” (Boehringer Ingelheim International GmbH, priority 2012, dated 2014)
